{"source": "paper PMC8752738", "about": "“A propolis-derived small molecule ameliorates metabolic syndrome in obese mice by targeting the CREB/CRTC2 transcriptional complex” (Nature Communications, 2022)", "test_system": "tissue protein levels", "experiment": "Immunoblotting of tissue proteins in treated mice", "format": "in vivo, mouse", "settings": "for Relative LXRa/ACTIN, Mean Diff. (VEH vs. treated) / Relative LXRa/ACTIN, Mean 2 (group mean) / Relative LXRa/ACTIN: Figure 7h; for Relative LXRa/ACTIN, Mean 2 (group mean): N2 = 4; for Relative LXRa/ACTIN: single replicates", "experimental": "Immunoblotting and immunoprecipitation assays were performed as previously described, with antibodies recognizing CREB, Ser133-P-CREB, AMPK, P-AMPK, AKT, P-AKT (Cell Signaling), PGC-1α (Merck), CRTC2 (Calbiochem), PCK1 (Santa Cruz), SREBP1 (Santa Cruz), SREBP2 (BD), HA (Convance), LXRα (Santa Cruz), FLAG (Sigma), GST (Covance), HIS (Abmart), GAPDH (AOGMA), α-TUBULIN (Abmart), β-ACTIN (Abmart), and other antibodies (Supplementary Table 3). For immunostaining assays, primary cultured hepatocytes seeded on coverslips were fixed with 4% paraformaldehyde for 20 min, permeabilized with 0.3% Triton X-100 in PBS, and then blocked by 5% normal goat serum and 0.3% Triton X-100 in PBS, followed by incubation with anti-CREB (1:1000), anti-P-CREB (1:1000), or anti-HA (1:3000) antibodies for 1 h at 4 °C. Slides were then washed, and after washing, slides were incubated with fluorochrome-conjugated secondary antibodies (Invitrogen). Slides were then washed and mounted with Vectashield mounting media containing 4, 6-diamidino-2-phenylindole (DAPI).", "key": {"[1]": {"settings": "Figure 6b right, N=4, VEH mean 1"}, "[2]": {"settings": "Figure 6b right, individual animals, relative to VEH"}, "[3]": {"settings": "Figure 8c, relative protein in DIO liver, individual samples"}, "[4]": {"settings": "db/db mice, liver, group mean, N=3, VEH mean 1"}, "[5]": {"settings": "db/db mice, liver, individual mouse"}, "[6]": {"settings": "liver of DIO mice, individual samples, n=3"}, "[7]": {"settings": "liver, CRTC2KO mice, drug minus VEH"}, "[8]": {"settings": "liver, WT mice, group mean, N=4"}}, "note": "Several values for one entry are separate records, joined by “and”; a condition that tells them apart may be missing. Equal values may be shown once.", "data": [{"smiles": "CC(C)=CCc1cc(C=CC(=O)O)cc(CC=C(C)C)c1O", "note": "[APC, 3,5-diprenyl-4-hydroxycinnamic acid]", "values": [{"measurement": "hepatic protein levels of PCK1 and PGC-1α", "setting": "DIO and db/db mice", "result": "decreased"}, {"measurement": "accumulation of mature SREBP proteins in the liver", "setting": "DIO mice", "result": "reducing"}, {"measurement": "protein levels of LXRα and SREBP1 in the liver", "setting": "DIO mice", "result": "decreased"}, {"measurement": "SREBP1/GAPDH, Predicted (LS) mean", "setting": "[1]", "result": 0.3097}, {"measurement": "SREBP2/GAPDH, Predicted (LS) mean", "setting": "[1]", "result": 0.1841}, {"measurement": "Relative SREBP1/2 protein levels: SREBP1/GAPDH", "setting": "[2]", "result": "0.2289 and 0.468 and 0.339 and 0.2027"}, {"measurement": "Relative SREBP1/2 protein levels: SREBP2/GAPDH", "setting": "[2]", "result": "0.3721 and 0.1919 and 0.1184 and 0.05422"}, {"measurement": "PGC1a/GAPDH density, mean", "setting": "Figure 8c, DIO liver, group mean, N=3, Ctrl mean 1", "result": 0.5994}, {"measurement": "PCK1/GAPDH density, mean", "setting": "Figure 8c, DIO liver, group mean, N=3, Ctrl mean 1.007", "result": 0.6998}, {"measurement": "Relative PGC1a/GAPDH density", "setting": "[3]", "result": "0.6916 and 0.563 and 0.5437"}, {"measurement": "relative PCK1/GAPDH density", "setting": "[3]", "result": "0.6644 and 0.7152 and 0.7198"}, {"measurement": "Relative LXRa/ACTIN, Mean Diff. (VEH vs. treated)", "setting": "CRTC2KO", "result": 0.1178}, {"measurement": "Relative LXRa/ACTIN, Mean 2 (group mean)", "setting": "CRTC2KO", "result": 0.6864}, {"measurement": "Relative LXRa/ACTIN", "setting": "CT2KO", "result": "0.6612 and 0.7951 and 0.6751 and 0.6141"}, {"measurement": "Relative LXRa/ACTIN, Mean Diff. (VEH vs. treated)", "setting": "WT", "result": 0.3705}, {"measurement": "Relative LXRa/ACTIN, Mean 2 (group mean)", "setting": "WT", "result": 0.525}, {"measurement": "Relative LXRa/ACTIN", "setting": "WT", "result": "0.572 and 0.5732 and 0.4815 and 0.4734"}, {"measurement": "Relative PCK1/TUBLIN in db/db liver, mean", "setting": "[4]", "result": 0.4585, "unit": "folds"}, {"measurement": "Relative PGC1a/TUBLIN in db/db liver, mean", "setting": "[4]", "result": 0.2953, "unit": "folds"}, {"measurement": "Relative proteins in the liver of db/db mice, PCK1/TUBLIN", "setting": "[5]", "result": "0.5197 folds and 0.4980 folds and 0.3577 folds"}, {"measurement": "Relative proteins in the liver of db/db mice, PGC1a/TUBLIN", "setting": "[5]", "result": "0.2725 folds and 0.3156 folds and 0.2979 folds"}, {"measurement": "relative protein levels in liver of DIO: LXRa/GAPDH", "setting": "[6]", "result": "0.741 and 0.777 and 0.8147"}, {"measurement": "relative protein levels in liver of DIO: PPARa/GAPDH", "setting": "[6]", "result": "0.924 and 0.9 and 0.98"}, {"measurement": "relative protein levels in liver of DIO: SREBP1/GAPDH", "setting": "[6]", "result": "0.391 and 0.515 and 0.283"}, {"measurement": "relative protein levels in liver of DIO: LXRa, group mean (Mean 1)", "setting": "liver of DIO mice, mean of N=3", "result": 0.7776}, {"measurement": "relative protein levels in liver of DIO: PPARa, group mean (Mean 1)", "setting": "liver of DIO mice, mean of N=3", "result": 0.9347}, {"measurement": "relative protein levels in liver of DIO: SREBP1, group mean (Mean 1)", "setting": "liver of DIO mice, mean of N=3", "result": 0.3963}, {"measurement": "SREBP1/ACT IN CT2KO, Mean Diff. vs. VEH", "setting": "[7]", "result": -0.1371}, {"measurement": "SREBP2/ACT IN CT2KO, Mean Diff. vs. VEH", "setting": "[7]", "result": -0.0958}, {"measurement": "SREBP1/ACT IN CT2KO, mean", "setting": "liver, CRTC2KO mice, group mean, N=4", "result": 0.5503}, {"measurement": "SREBP1/ACT IN CT2KO (related SREBP1 protein levels in CRTC2KO liver)", "setting": "liver, CRTC2KO mice, individual replicates, Supp.fig.5a left", "result": "0.5592 and 0.5689 and 0.5793 and 0.4937"}, {"measurement": "SREBP2/ACT IN CT2KO (related SREBP2 protein levels in CRTC2KO liver)", "setting": "liver, CRTC2KO mice, individual replicates, Supp.fig.5a right", "result": "0.6411 and 0.5673 and 0.6822 and 0.6938"}, {"measurement": "SREBP1/ACT IN WT, Mean Diff. vs. VEH", "setting": "liver, WT mice, drug minus VEH", "result": -0.2945}, {"measurement": "SREBP2/ACT IN WT, Mean Diff. vs. VEH", "setting": "liver, WT mice, drug minus VEH", "result": -0.4593}, {"measurement": "SREBP1/ACT IN WT, mean", "setting": "[8]", "result": 0.6687}, {"measurement": "SREBP2/ACT IN WT, mean", "setting": "[8]", "result": 0.5653}, {"measurement": "SREBP1/ACT IN WT (related SREBP1 protein levels in liver)", "setting": "liver, WT mice, individual replicates, Supp.fig.5a left", "result": "0.6865 and 0.5728 and 0.728 and 0.6877"}, {"measurement": "SREBP2/ACT IN WT (related SREBP2 protein levels in liver)", "setting": "liver, WT mice, individual replicates, Supp.fig.5a right", "result": "0.6071 and 0.5991 and 0.5115 and 0.5437"}, {"measurement": "phosphorylated AKT in liver, muscle, brown and white adipose tissues", "setting": "treated obese mice", "result": "enhanced"}]}]}
